Test results from the CheMixHub ionic liquid set.
± gives the uncertainty stated by the source.

Assay: xn = mol fraction of the nth substance listed

CCCCCC[n+]1ccn(C)c1.O=[N+]([O-])[O-] + CCCC(C)O
viscosity (293.15 K, 100 kPa, x1 = 0.2408): 23.7 ± 1.2 mPa·s
viscosity (293.15 K, 100 kPa, x1 = 0.7401): 258 ± 14 mPa·s
viscosity (293.15 K, 100 kPa, x1 = 0.8508): 417 ± 24 mPa·s
viscosity (298.15 K, 100 kPa, x1 = 0.1609): 10.16 ± 0.53 mPa·s
viscosity (303.15 K, 100 kPa, x1 = 0.0814): 4.67 ± 0.24 mPa·s
viscosity (303.15 K, 100 kPa, x1 = 0.7401): 113.5 ± 6 mPa·s
viscosity (308.15 K, 100 kPa, x1 = 0.7401): 75.3 ± 3.9 mPa·s
viscosity (313.15 K, 100 kPa, x1 = 0.0814): 2.69 ± 0.14 mPa·s
viscosity (323.15 K, 100 kPa, x1 = 0.0814): 1.71 ± 0.09 mPa·s
viscosity (323.15 K, 100 kPa, x1 = 0.6509): 16.03 ± 0.83 mPa·s
viscosity (323.15 K, 100 kPa, x1 = 1): 110.9 ± 5.8 mPa·s

CCCC[n+]1ccn(C)c1.O=[N+]([O-])[O-] + CCCC(C)O
viscosity (293.15 K, 100 kPa, x1 = 0.8501): 83 ± 17 mPa·s
viscosity (303.15 K, 100 kPa, x1 = 0.3499): 6.6 ± 1.3 mPa·s
viscosity (318.15 K, 100 kPa, x1 = 0.4399): 5.9 ± 1.2 mPa·s
viscosity (323.15 K, 100 kPa, x1 = 0.5604): 7.1 ± 1.4 mPa·s
viscosity (323.15 K, 100 kPa, x1 = 0.6505): 9.7 ± 1.9 mPa·s

CCCC[N+](CCCC)(CCCC)CCCC.O=S(=O)([O-])O + CCCCCCCCCO
electrical conductivity (293.15 K, 101.3 kPa, x1 = 0.2): 0.00273 ± 6.8e-05 S/m
viscosity (293.15 K, 101.3 kPa, x1 = 0.2): 164.6 ± 4.9 mPa·s
electrical conductivity (298.15 K, 101.3 kPa, x1 = 0.2): 0.00375 ± 8.8e-05 S/m
electrical conductivity (303.15 K, 101.3 kPa, x1 = 0.2): 0.00499 ± 0.00011 S/m
electrical conductivity (308.15 K, 101.3 kPa, x1 = 0.2): 0.00648 ± 0.00015 S/m
viscosity (308.15 K, 101.3 kPa, x1 = 0.2): 84.2 ± 2.1 mPa·s
electrical conductivity (313.15 K, 101.3 kPa, x1 = 0.2): 0.0082 ± 0.00018 S/m
viscosity (313.15 K, 101.3 kPa, x1 = 0.2): 65.8 ± 1.6 mPa·s

CCCCCC[n+]1ccn(C)c1.O=[N+]([O-])[O-] + CCCCCCCO
viscosity (293.15 K, 100 kPa, x1 = 0.4392): 100.5 ± 8.2 mPa·s

CCCC[n+]1ccn(C)c1.O=[N+]([O-])[O-] + CCCCCCCO
viscosity (293.15 K, 100 kPa, x1 = 0.0824): 7.76 ± 0.62 mPa·s
viscosity (293.15 K, 100 kPa, x1 = 0.1625): 8.67 ± 0.7 mPa·s
viscosity (293.15 K, 100 kPa, x1 = 0.2317): 9.68 ± 0.78 mPa·s
viscosity (293.15 K, 100 kPa, x1 = 0.3446): 11.46 ± 0.92 mPa·s
viscosity (293.15 K, 100 kPa, x1 = 0.4317): 13.2 ± 1.1 mPa·s
viscosity (293.15 K, 100 kPa, x1 = 0.5762): 18.7 ± 1.5 mPa·s
viscosity (293.15 K, 100 kPa, x1 = 0.6416): 24.3 ± 2 mPa·s
viscosity (293.15 K, 100 kPa, x1 = 0.7334): 41.3 ± 3.4 mPa·s
viscosity (293.15 K, 100 kPa, x1 = 0.8418): 82.4 ± 6.7 mPa·s
viscosity (293.15 K, 100 kPa, x1 = 0.9327): 146 ± 12 mPa·s
viscosity (293.15 K, 100 kPa, x1 = 1): 224 ± 18 mPa·s
viscosity (303.15 K, 100 kPa, x1 = 0.0824): 5.5 ± 0.44 mPa·s
viscosity (303.15 K, 100 kPa, x1 = 0.1625): 6.03 ± 0.48 mPa·s
viscosity (303.15 K, 100 kPa, x1 = 0.2317): 6.61 ± 0.53 mPa·s
viscosity (303.15 K, 100 kPa, x1 = 0.3446): 7.53 ± 0.6 mPa·s
viscosity (303.15 K, 100 kPa, x1 = 0.4317): 8.53 ± 0.69 mPa·s
viscosity (303.15 K, 100 kPa, x1 = 0.5762): 11.56 ± 0.93 mPa·s
viscosity (303.15 K, 100 kPa, x1 = 0.6416): 14.4 ± 1.2 mPa·s
viscosity (303.15 K, 100 kPa, x1 = 0.7334): 22.6 ± 1.8 mPa·s
viscosity (303.15 K, 100 kPa, x1 = 0.8418): 43 ± 3.5 mPa·s
viscosity (303.15 K, 100 kPa, x1 = 0.9327): 77.8 ± 6.4 mPa·s
viscosity (303.15 K, 100 kPa, x1 = 1): 125 ± 10 mPa·s
viscosity (313.15 K, 100 kPa, x1 = 0.0824): 3.98 ± 0.32 mPa·s
viscosity (313.15 K, 100 kPa, x1 = 0.1625): 4.34 ± 0.35 mPa·s
viscosity (313.15 K, 100 kPa, x1 = 0.2317): 4.7 ± 0.38 mPa·s
viscosity (313.15 K, 100 kPa, x1 = 0.3446): 5.37 ± 0.43 mPa·s
viscosity (313.15 K, 100 kPa, x1 = 0.4317): 5.96 ± 0.48 mPa·s
viscosity (313.15 K, 100 kPa, x1 = 0.5762): 7.74 ± 0.62 mPa·s
viscosity (313.15 K, 100 kPa, x1 = 0.6416): 9.06 ± 0.73 mPa·s
viscosity (313.15 K, 100 kPa, x1 = 0.7334): 14 ± 1.1 mPa·s
viscosity (313.15 K, 100 kPa, x1 = 0.8418): 26.4 ± 2.2 mPa·s
viscosity (313.15 K, 100 kPa, x1 = 0.9327): 47.8 ± 3.9 mPa·s
viscosity (313.15 K, 100 kPa, x1 = 1): 75.1 ± 6.1 mPa·s
viscosity (323.15 K, 100 kPa, x1 = 0.0824): 2.87 ± 0.23 mPa·s
viscosity (323.15 K, 100 kPa, x1 = 0.1625): 3.03 ± 0.24 mPa·s
viscosity (323.15 K, 100 kPa, x1 = 0.2317): 3.23 ± 0.26 mPa·s
viscosity (323.15 K, 100 kPa, x1 = 0.3446): 3.67 ± 0.29 mPa·s
viscosity (323.15 K, 100 kPa, x1 = 0.4317): 4.12 ± 0.33 mPa·s
viscosity (323.15 K, 100 kPa, x1 = 0.5762): 5.01 ± 0.4 mPa·s
viscosity (323.15 K, 100 kPa, x1 = 0.6416): 5.69 ± 0.46 mPa·s
viscosity (323.15 K, 100 kPa, x1 = 0.7334): 8.49 ± 0.69 mPa·s
viscosity (323.15 K, 100 kPa, x1 = 0.8418): 15.8 ± 1.3 mPa·s
viscosity (323.15 K, 100 kPa, x1 = 0.9327): 28.1 ± 2.3 mPa·s
viscosity (323.15 K, 100 kPa, x1 = 1): 45.2 ± 3.7 mPa·s

CCCC[n+]1ccn(C)c1.O=[N+]([O-])[O-] + CCCCCCO
viscosity (293.15 K, 100 kPa, x1 = 0.0811): 6.41 ± 0.51 mPa·s
viscosity (293.15 K, 100 kPa, x1 = 0.1741): 7.98 ± 0.64 mPa·s
viscosity (293.15 K, 100 kPa, x1 = 0.2418): 9.59 ± 0.77 mPa·s
viscosity (293.15 K, 100 kPa, x1 = 0.3587): 13.3 ± 1.1 mPa·s
viscosity (293.15 K, 100 kPa, x1 = 0.4426): 17.5 ± 1.4 mPa·s
viscosity (293.15 K, 100 kPa, x1 = 0.5532): 26.6 ± 2.1 mPa·s
viscosity (293.15 K, 100 kPa, x1 = 0.6538): 40.2 ± 3.2 mPa·s
viscosity (293.15 K, 100 kPa, x1 = 0.7414): 60.7 ± 4.9 mPa·s
viscosity (293.15 K, 100 kPa, x1 = 0.8519): 103.2 ± 8.4 mPa·s
viscosity (293.15 K, 100 kPa, x1 = 0.9367): 162 ± 13 mPa·s
viscosity (293.15 K, 100 kPa, x1 = 1): 224 ± 18 mPa·s
viscosity (303.15 K, 100 kPa, x1 = 0.0811): 4.47 ± 0.36 mPa·s
viscosity (303.15 K, 100 kPa, x1 = 0.1741): 5.21 ± 0.42 mPa·s
viscosity (303.15 K, 100 kPa, x1 = 0.2418): 6.02 ± 0.48 mPa·s
viscosity (303.15 K, 100 kPa, x1 = 0.3587): 8.24 ± 0.66 mPa·s
viscosity (303.15 K, 100 kPa, x1 = 0.4426): 10.69 ± 0.86 mPa·s
viscosity (303.15 K, 100 kPa, x1 = 0.5532): 15.4 ± 1.2 mPa·s
viscosity (303.15 K, 100 kPa, x1 = 0.6538): 23 ± 1.9 mPa·s
viscosity (303.15 K, 100 kPa, x1 = 0.7414): 33.8 ± 2.7 mPa·s
viscosity (303.15 K, 100 kPa, x1 = 0.8519): 58.4 ± 4.7 mPa·s
viscosity (303.15 K, 100 kPa, x1 = 0.9367): 90.8 ± 7.4 mPa·s
viscosity (303.15 K, 100 kPa, x1 = 1): 125 ± 10 mPa·s
viscosity (313.15 K, 100 kPa, x1 = 0.0811): 3.24 ± 0.26 mPa·s
viscosity (313.15 K, 100 kPa, x1 = 0.1741): 3.72 ± 0.3 mPa·s
viscosity (313.15 K, 100 kPa, x1 = 0.2418): 4.21 ± 0.34 mPa·s
viscosity (313.15 K, 100 kPa, x1 = 0.3587): 5.33 ± 0.43 mPa·s
viscosity (313.15 K, 100 kPa, x1 = 0.4426): 6.48 ± 0.52 mPa·s
viscosity (313.15 K, 100 kPa, x1 = 0.5532): 8.94 ± 0.72 mPa·s
viscosity (313.15 K, 100 kPa, x1 = 0.6538): 12.8 ± 1 mPa·s
viscosity (313.15 K, 100 kPa, x1 = 0.7414): 18.9 ± 1.5 mPa·s
viscosity (313.15 K, 100 kPa, x1 = 0.8519): 33.4 ± 2.7 mPa·s
viscosity (313.15 K, 100 kPa, x1 = 0.9367): 53.2 ± 4.3 mPa·s
viscosity (313.15 K, 100 kPa, x1 = 1): 75.1 ± 6.1 mPa·s
viscosity (323.15 K, 100 kPa, x1 = 0.0811): 2.45 ± 0.2 mPa·s
viscosity (323.15 K, 100 kPa, x1 = 0.1741): 2.75 ± 0.22 mPa·s
viscosity (323.15 K, 100 kPa, x1 = 0.2418): 3.02 ± 0.24 mPa·s
viscosity (323.15 K, 100 kPa, x1 = 0.3587): 3.63 ± 0.29 mPa·s
viscosity (323.15 K, 100 kPa, x1 = 0.4426): 4.22 ± 0.34 mPa·s
viscosity (323.15 K, 100 kPa, x1 = 0.5532): 5.49 ± 0.44 mPa·s
viscosity (323.15 K, 100 kPa, x1 = 0.6538): 7.56 ± 0.61 mPa·s
viscosity (323.15 K, 100 kPa, x1 = 0.7414): 10.83 ± 0.88 mPa·s
viscosity (323.15 K, 100 kPa, x1 = 0.8519): 18.5 ± 1.5 mPa·s
viscosity (323.15 K, 100 kPa, x1 = 0.9367): 30.6 ± 2.5 mPa·s
viscosity (323.15 K, 100 kPa, x1 = 1): 45.2 ± 3.7 mPa·s
